Legend:
[1] = system: E. coli BAA-2469 (NDM-1 positive); assay: Proof-of-concept murine bacteraemia or bloodstream infection model, IV bolus; format: in vivo; conditions: CD-1 mice, single dose IV bolus 20 mg/kg
Method: (§1) Compound (I) and comparative compound (III) were evaluated in proof-of-concept studies in murine models for the treatment of a respiratory infection with Gram-negative bacteria of the order Enterobacterales, a bacteraemia or bloodstream infection with Gram-negative bacteria of the order Enterobacterales, and a urinary tract infection with Gram-negative bacteria of the order Enterobacterales. Each dot, triangle or square indicator represents a single mouse. LOD refers to the limit of detection of the bacteria. […] Each of the proof-of-concept studies was carried out separately. By vehicle is meant pharmaceutically acceptable carrier or excipient.
For the proof-of-concept study for the treatment of a bacteraemia or bloodstream infection with Gram-negative bacteria of the order Enterobacterales, CD-1 mice were infected with human urine isolate E. coli BAA-2469 (NDM-1 positive). One hour after infection (‘pre-treatment’ in FIG. 3), a vehicle (20% hydroxypropyl β cyclodextrin) containing no compound (I) or comparative compound (III), or a vehicle (20% hydroxypropyl β cyclodextrin) containing compound (I) or comparative compound (III), was administered by as a single dose IV bolus at 20 mg/kg.

[2] = system: Klebsiella pneumoniae ATCC 43816; assay: Proof-of-concept murine respiratory infection model, IV bolus; format: in vivo; conditions: CD-1 mice, 20 mg/kg IV bolus TID, 26 h
Method: as §1, with “excipient. For the proof-of-concept study for the treatment of a respiratory infection caused or exacerbated by Gram-negative bacteria of the order Enterobacterales, CD-1 mice were infected with Klebsiella pneumoniae ATCC 43816. Two hours after infection (‘pre-treatment’ in FIG. 2), a vehicle (20% hydroxypropyl β cyclodextrin) containing no compound (I) or comparative compound (III), or a vehicle (20% hydroxypropyl β cyclodextrin) containing compound (I) or comparative compound (III), was administered by IV bolus at 20 mg/kg, TID (8 hrs apart), over one day.” for “excipient.”

[3] = system: Proteus spp. (10 isolates); assay: MIC by broth microdilution versus Proteus spp. isolates; format: cell-based
Method: (§2) Minimum Inhibitory Concentration (MIC90) versus 100 isolates of Escherichia coli and Klebsiella pneumonia were determined. The Minimum Inhibitory Concentration at which 90% of the isolates (strains) are inhibited (MIC90) were measured by broth microdilution in line with EUCAST susceptibility testing standards (www.eucast.org). Bacterial inocula were prepared at ca 1×10^6 CFU/mL by diluting 100-fold a 0.5 McFarland suspension. Antibacterial panels containing 50 μl of antibacterial solutions at 2×the final concentrations were diluted 2-fold with 50 μl of inoculum to give a final inoculum of ca 5×10^5 CFU/ml and desired test concentrations of antibacterial agents (0.03-64 μg/mL). The plates were incubated according to the guidelines of the Clinical and Laboratory Standards Institute (Clinical and Laboratory Standards Institute. Methods for Dilution Antimicrobial Susceptibility Tests for Bacteria That Grow Aerobically; Approved Standard-Eleventh Edition, CLSI document […], 11 Jan. 2018). The MIC90 (μg/ml) is the MIC value at which greater than or equal to 90% of the isolates (strains) within a test population are inhibited. Minimum Inhibitory Concentrations (MICs) versus Proteus spp. and Providencia spp. were determined for compound (I) and comparative compound (III) using the methodology outlined above for the 100 isolates of Escherichia coli and Klebsiella pneumonia.

[4] = system: 44 ligands (including receptors, transporters, ion channels, enzymes and kinases); assay: In vitro safety pharmacology binding assays (CEREP profile); conditions: 10 μM, 44 ligands tested, radioligand binding
Method: In vitro pharmacology binding assays were carried out for compound (I), comparative compound (II) and comparative compound (III) to evaluate the percentage of inhibition against 44 ligands (including receptors, transporters, ion channels, enzymes and kinases) at a concentration of 10 μM of compound (I), comparative compound (II) or comparative compound (III). Compound binding was calculated as a percentage of inhibition of the binding of a radioactively labelled ligand specific for each target. Results showing an inhibition higher than 50% are considered to represent discernible effects of compound (I), comparative compound (II) or comparative compound (III). […] The in vitro pharmacology binding assays for compound (I) and comparative compounds (II) and (III) was carried out separately over different days, and compared in FIGS. 1a, 1b, 1c, and 1d.

[5] = system: Escherichia coli (100 isolates); assay: MIC90 by broth microdilution (EUCAST), 100 isolates of Escherichia coli; format: cell-based; conditions: test concentrations 0.03-64 μg/mL
Method: as §2, with “inhibited.” for “inhibited. Minimum Inhibitory Concentrations (MICs) versus Proteus spp. and Providencia spp. were determined for compound (I) and comparative compound (III) using the methodology outlined above for the 100 isolates of Escherichia coli and Klebsiella pneumonia.”

E. coli UTI89 = assay: Proof-of-concept murine urinary tract infection model, IV bolus; format: in vivo; conditions: IV bolus 20 mg/kg TID over 3 days, 96 h
Method: as §1, with “excipient. For the proof-of-concept study for the treatment of a urinary tract infection with Enterobacterales, female C3H/HeN mice were infected with E. coli UTI89. Twenty-four hours after infection (‘pre-treatment’ in FIGS. 4a-c), a vehicle (20% hydroxypropyl β cyclodextrin) containing no compound (I) or comparative compound (III), or a vehicle (20% hydroxypropyl β cyclodextrin) containing compound (I) or comparative compound (III), was administered by IV bolus of 20 mg/kg, TID (8 hrs apart), over 3 days.” for “excipient.”

[6] = system: Klebsiella pneumonia (100 isolates); assay: MIC90 by broth microdilution (EUCAST), 100 isolates of Klebsiella pneumonia; format: cell-based; conditions: test concentrations 0.03-64 μg/mL
Method: as §2, with “inhibited.” for “inhibited. Minimum Inhibitory Concentrations (MICs) versus Proteus spp. and Providencia spp. were determined for compound (I) and comparative compound (III) using the methodology outlined above for the 100 isolates of Escherichia coli and Klebsiella pneumonia.”

E. coli UT189 = assay: Further proof-of-concept murine urinary tract infection model, intravenous infusion; format: in vivo; conditions: 96 h
Method: Compound (I) was evaluated in further proof-of-concept studies in murine models for the treatment of a respiratory infection with Gram-negative bacteria of the order Enterobacterales, and a urinary tract infection with Gram-negative bacteria of the order Enterobacterales. Each dot, triangle or square indicator represents a single mouse. LOD refers to the limit of detection of the bacteria. […] Each of the proof-of-concept studies was carried out separately. By vehicle is meant pharmaceutically acceptable excipient or carrier. For the further proof-of-concept study for the treatment of a urinary tract infection with Enterobacterales, female C3H/HeN mice were infected with E. coli UT189. Twenty-four hours after infection (‘pre-treatment’ in FIGS. 6a-c), mice were either treated with a vehicle control (20% hydroxypropyl β cyclodextrin) containing no compound (I), or a vehicle (20% hydroxypropyl β cyclodextrin) containing compound (I), administered by intravenous infusion for 1 hour (QD) with a dose of 20 mg/kg of compound (I). For some mice who received vehicle containing compound (I), an additional 1-hour continuous intravenous infusion was administered 5 hours after the time at which the first administration begun (BID, 5 hrs apart). The once or twice daily administration was continued for three days. For QD, administration took place between 24 to 25 hours, 48 to 49 hours, and 72 to 73 hours after infection, and for BID, administration took place between 24 to 25 hours, 29 to 30 hours, 48 to 49 hours, 53 to 54 hours, 72 to 73 hours and 77 to 78 hours after infection.

[7] = system: Providencia spp. (10 isolates); assay: MIC by broth microdilution versus Providencia spp. isolates; format: cell-based
Method: as §2

[8] = both QD and BID daily administration

| SMILES | CFU value in the blood relative to stasis level ([1]; 9 h) | CFU value in the lung relative to stasis level [2] | bacterial burden in the blood at end of study ([1]; 9 h after initial infection) | MIC Range Proteus spp. (10 isolates) [3] [µg/mL] | ligands with inhibition higher than 50% [4] | MIC Range Escherichia coli (100 isolates) [5] [µg/mL] | more efficacious than comparative compound (III) in reducing the CFU in the bladder (E. coli UTI89) [log] | more efficacious than comparative compound (III) in reducing the CFU in the urine (E. coli UTI89) [log] | bacterial burden in the urine at end of study (E. coli UTI89; female C3H/HeN mice) | MIC Range Klebsiella pneumonia (100 isolates) [6] [µg/mL] | bacterial burden in the kidney at end of study (E. coli UT189; BID administration) | bacterial burden in the bladder at end of study (E. coli UT189; [8]) | bacterial burden in the urine at end of study (E. coli UT189; [8]) | MIC Range Providencia spp. (10 isolates) [7] [µg/mL] |
| --- | --- | --- | --- | --- | --- | --- | --- | --- | --- | --- | --- | --- | --- | --- |
| Cc1cnccc1-c1[nH]c(N)nc1-c1ccc2c(c1)N(C(=O)CN)CCO2 [Comparative Compound (III), reference compound] | on or above the stasis level | relatively close to the stasis level |  |  |  |  |  |  |  |  |  |  |  |  |
| Cc1cnccc1-c1[nH]c(N)nc1-c1ccc2c(c1)N(C(=O)C(C)(C)N)CCO2 [Compound (I), 2-amino-1-(6-(2-amino-5-(3-methylpyridin-4-yl)-1H-imidazol-4-yl)-2,3-dihydro-4H-benzo[b][1,4]oxazin-4-yl)-2-methylpropan-1-one] |  |  | below the limit of detection (LOD) | 8 to 32 | only a single ligand | 0.12 to 4.00 | 3 | 3 | below the limit of detection (LOD) | 0.25 to 8.00 | below the limit of detection (LOD) | below the limit of detection (LOD) | below the limit of detection (LOD) | 0.5 to 16 |
